In a melting point compilation (Tetko et al.; mined from patent text by program, amines drawn as free bases though some values may be those of a salt):

First: CC(C)(S)[C@H]1C[C@H](C(=O)O)CS1 (relative stereo)
Second: CC(C)(C(=O)O)c1ccsc1
The melting point of the first is higher: 97 to 98.3 °C for the first, 78 to 80.5 °C for the second.

First: O=C(O)c1snc(-c2cccc(Cl)c2)c1C(=O)O
Second: O=C(O)c1ccccc1Sc1c(O)c2ccc(Cl)cc2[nH]c1=O
The melting point of the first is lower: 185 to 186 °C for the first, over 300 °C for the second.

First: Cc1[nH]c(N)c(C)c1-c1ccnc(Nc2ccc(F)cc2)n1
Second: CCCC(=O)c1cnc2ccsc2c1Nc1ccc(F)cc1C
The melting point of the first is higher: 227 to 231 °C for the first, 153 to 155 °C for the second.

Compared with `c1cc(N2CCCCC2)ccc1OC12CCC(CC1)CC2`, `COc1cc2cc(OCCCN3CCCCC3)ccc2c2ccc(OCCCN3CCCCC3)cc12` is higher in melting point: 66 to 68 °C for the first, 118 to 120 °C for the second.

Compared with `COC(=O)c1cc(OC)c(NC(=O)OCc2ccccc2)c(OC)c1`, `COC(=O)c1ccccc1OCC(O)CN1CCN(c2ccccc2OC)CC1` (configuration not stated) is lower in melting point: 132 to 133 °C for the first, 120 to 121 °C for the second.

Compared with `CCOC(=O)c1cccc2c1C(=O)N(C)Cc1c(C(=O)OCC)ncn1-2`, `CCOC(=O)c1cc(C)n(-c2cccc(Br)c2)c1-c1ccccc1` is lower in melting point: 136 to 140 °C for the first, 118 to 119 °C for the second.

First: C=C1CCC(C(O)C(N)=O)CC1 (configuration not stated)
Second: C=CCCc1ccc(C(N)=O)c(O)n1
The melting point of the first is lower: 127 to 129 °C for the first, 195 to 198 °C for the second.

First: Nc1ccccc1Sc1ccncc1
Second: CN(C)c1ccc(OCc2ccncc2)cc1
The melting point of the first is lower: 103 to 107 °C for the first, 123 to 125 °C for the second.

First: Cc1c(Nc2c(C#N)cncc2-c2cc3cc(C=O)ccc3o2)ccc2[nH]ccc12
Second: Cc1cc2ncc(-c3cccc(-c4ccccc4C#N)c3)n2cn1
The melting point of the first is higher: 235 to 237 °C for the first, 119 °C for the second.

First: FC(F)(F)c1ccc2nc(N3CCN(c4ncccc4C(F)(F)F)CC3)[nH]c2c1
Second: FC(F)(F)c1cccc(N2CCN(CCCCNc3cc(-c4ccccc4)ccn3)CC2)c1
The melting point of the first is higher: 221 to 224 °C for the first, 120 °C for the second.

First: CCCc1cc(C(O)=S)cc(N)c1C(=O)c1ccccc1
Second: O=C(O)CCc1cccc2ccccc12
The melting point of the first is lower: 124 to 126 °C for the first, 151 to 153 °C for the second.

First: CCCCC(=O)c1c(-c2ccc3c(Br)c(OCC(=O)O)ccc3c2)sc2ccccc12
Second: Cc1oc(-c2ccccc2)nc1CCOc1cccc2c1ccn2C(C)C(=O)O (configuration not stated)
The melting point of the first is higher: 164 to 165 °C for the first, 157 to 159 °C for the second.

Compared with `COc1ccc(-c2cnc(C)[nH]c2=O)cc1OC`, `COc1cc(CC2COC(c3ccc(O)c(OC)c3)C2CO)ccc1O` (configuration not stated) is lower in melting point: 187 to 188 °C for the first, 169 to 171 °C for the second.

First: Clc1ccc(N2C3CCC2CN(Cc2ccccc2)C3)cc1
Second: CNc1nc(-c2ccc(OCc3ccccc3)cc2)no1
The melting point of the first is lower: 115 to 117 °C for the first, 148 to 150 °C for the second.

Compared with `CON(C)C(=O)c1ccc(-c2cc(C(C)(C)C)c(O)c(C(C)(C)C)c2)cc1`, `COC(=O)c1ccc(C#CCc2ccc3c(c2)C(C)(C)CCC3(C)C)cc1O` is lower in melting point: 176 to 177 °C for the first, 75 to 77 °C for the second.

First: COCCOCOc1ccccc1N1C(C(C)(C)C)ONC1(Br)C(C)(C)C (configuration not stated)
Second: CC1=C(C(=O)OCOC(=O)C(C)(C)C)C(C)C(C(=O)OCOC(=O)C(C)(C)C)=C(C)N1
The melting point of the first is higher: 89 to 91 °C for the first, 82 to 83 °C for the second.

Compared with `O=C(C=Cc1ccc2c(c1)OCO2)C1CC1`, `CS(=O)(=O)c1cc(C(=O)N=C(N)N)ccc1N1CCC(N)CC1` is higher in melting point: 85 to 87 °C for the first, 239 to 241 °C for the second.

First: COc1cc2c(Cl)c(C#N)cnc2cc1N1CCN(C)CC1
Second: COc1ccnc(CCc2nc3cc(-c4ccc(S(=O)(=O)N5CCCN(C)CC5)cc4)cnc3[nH]2)c1
The melting point of the first is higher: 177 to 179 °C for the first, 160 to 162 °C for the second.

First: O=C(O)c1cc(-n2c(-c3ccccc3)cc3c2CCCC3)ccc1O
Second: O=C(O)[C@H]1Cc2ccccc2CN1S(=O)(=O)c1ccc(-c2ccccc2)cc1
The melting point of the first is higher: 209 to 211 °C for the first, 195 to 202 °C for the second.

First: [N-]=[N+]=Nc1ccc(S(=O)(=O)NCCCCCC(=O)O)cc1
Second: O=C(NCCCCCO)c1cc([N+](=O)[O-])cc([N+](=O)[O-])c1Cl
The melting point of the first is higher: 126 to 127 °C for the first, 100 to 103 °C for the second.

First: CC(O)(c1ccccc1)c1cc(Cl)ccc1O (configuration not stated)
Second: COC(c1cc(C)no1)c1ccccc1COc1cc(Cl)ccc1Cl (configuration not stated)
The melting point of the first is higher: 106 °C for the first, 78.5 to 79.5 °C for the second.

First: O=C1NOCCN1c1ccc(Cl)c(Cl)c1
Second: CC(=O)N1CCc2ccc(Cl)c(S)c2C1
The melting point of the first is higher: 152 °C for the first, 92 to 112 °C for the second.

Compared with `COC(=O)c1cc(I)cc(C)c1O`, `COC(=O)c1[nH]c(C)c(C)c1OCCCCCl` is lower in melting point: 82 to 84 °C for the first, 74 to 76 °C for the second.

First: CC(C)(C)NC(=O)C1CC(Cl)CN1C(=O)C(O)C(Cc1ccccc1)NC(=O)C(CC(N)=O)NC(=O)C(COC1CCCO1)NC(=O)OCc1ccccc1 (configuration not stated)
Second: CC(C)C(NC(=O)c1ccncc1)C(=O)NC(Cc1ccccc1)C(O)C(Cc1ccccc1)NC(=O)C(NC(=O)c1ccncc1)C(C)C (configuration not stated)
The melting point of the first is lower: 64 to 71 °C for the first, 256 to 258 °C for the second.

First: NC12CCCC(C1)C1CCC2C1 (configuration not stated)
Second: CC(C)(C)C1CSC2(CCC(C=C(Br)Br)CC2)SC1 (configuration not stated)
The melting point of the first is lower: 111 to 113 °C for the first, 143 °C for the second.

First: CNC(C)C1CCN(c2nc3c(cc2F)c(=O)c(C(=O)O)cn3C2CC2)C1 (configuration not stated)
Second: COc1c(F)ccc2c1C(=O)N1CC[C@H]1c1c(-c3noc(CN)n3)ncn1-2
The melting point of the first is higher: 199 to 202 °C for the first, 196 to 198 °C for the second.

First: CCc1cn(C2CC(I)C(COC(c3ccccc3)(c3ccccc3)c3ccccc3)O2)c(=O)[nH]c1=O (configuration not stated)
Second: CN1C(=O)C[C@@H](c2ccccc2)[C@H]1C(=O)c1ccccc1
The melting point of the first is lower: 93 to 98 °C for the first, 115 to 116 °C for the second.

Compared with `CCOC(=O)c1c(SCc2ccc(OC)cc2)[nH]c2cc(Cl)c(F)cc2c1=O`, `CCOC(=O)c1ccc2c(c1)CCC(=Cc1cccnc1)C2=O` is lower in melting point: 142 °C for the first, 112 to 114 °C for the second.

First: CCCCCCCCCCCCNC(=O)c1cc(Br)c(OCCn2ccnn2)c(-c2cccc(C(F)(F)F)c2)c1
Second: CCCCCCC(O)CCCCCCCCCCC(=O)NCC(O)CNCCO (configuration not stated)
The melting point of the first is lower: 70.5 to 72.5 °C for the first, 97.7 to 99.6 °C for the second.

First: Cc1ccc(N2CCN(CCC3CN(C)C(=O)O3)CC2)cc1C (configuration not stated)
Second: COC(=O)C1=Cc2cc(-c3ccc(N4CCOCC4)cc3)ccc2N(C(=O)OC)CC1
The melting point of the first is lower: 96 to 97 °C for the first, 216 to 220 °C for the second.

First: O=C(Nc1ccccc1)c1ccc(F)c2c1CC(N(CCCc1c[nH]c3ccc(F)cc13)C1CCC1)CO2 (configuration not stated)
Second: CC(C)Oc1cc(CCCOc2cc(CCC(=O)O)n(-c3ccccc3)n2)cc(COc2ccc(Cl)cc2Cl)c1
The melting point of the first is higher: 136 °C for the first, 104 to 106 °C for the second.

Compared with `CC(C)(C)COc1ccc(N(CC(=O)O)C(=O)c2cccn2-c2ccc(F)cc2)cc1C#N`, `CCOC(=O)C(NC(C)=O)=C(c1ccc(F)cc1)c1ccc(F)cc1` is higher in melting point: 140 to 143 °C for the first, 200 to 201 °C for the second.

Compared with `O=C(NC1CCCCC1)NC1N=C(c2ccccc2F)c2ccccc2N(CC(=O)N2CC3CCC(CC3)C2)C1=O` (racemic), `CC(C)n1nc(-c2cc(C(=O)NCc3ccccn3)cnc2-c2ccccc2)ccc1=O` is higher in melting point: 128 to 130 °C for the first, 193 to 194 °C for the second.

Compared with `Cn1ccc(S(=O)(=O)NC(C)(C)C)c1`, `CC(C)(S)C(NC(=O)c1ccc(Cl)cc1)C(=O)O` (configuration not stated) is higher in melting point: 134 to 135 °C for the first, 174 °C for the second.

Compared with `O=C(O)C(Cc1occ2ccccc12)NC(=O)C(CS)C(F)(F)F` (configuration not stated), `CC(C)NC(=O)NCCn1c(CO)nc2c(N)nc3ccccc3c21` is higher in melting point: 143 to 145 °C for the first, over 240 °C for the second.

First: Cc1ccc(-n2cccc2)c(N)c1
Second: Cc1cc(O)ccc1-n1cc(C(=O)O)c(=O)cc1C=O
The melting point of the first is lower: 89 to 90 °C for the first, 230 to 250 °C for the second.

First: CC(C)(C)c1ccc(Sc2cccc(C=C3SC(=S)NC3=O)c2)cc1
Second: O=C(O)Cc1cc([N+](=O)[O-])ccc1Sc1cccc(Br)c1
The melting point of the first is higher: 188 to 190 °C for the first, 123 to 125 °C for the second.

Compared with `O=S(Cc1cccc(O)c1)c1nc2cnccc2[nH]1` (configuration not stated), `Cc1nc2cnccc2n1-c1ccc(Cn2nnc3ccccc32)cc1` is lower in melting point: 224 to 227 °C for the first, 126 to 127 °C for the second.

Compared with `CSc1cc2c([nH]1)CC(C)(C)CC2=O`, `CC1(C)CC(=O)C(C(=O)c2cccc3nnsc23)C(=O)C1` is lower in melting point: 195 to 196 °C for the first, 168 to 170 °C for the second.

First: OCC1=C(c2ccc3sccc3c2)N2CCN=C2S1
Second: CC(C)c1nc(-c2ccccn2)ncc1-c1ccc(Cl)cc1
The melting point of the first is higher: 149 to 150 °C for the first, 145 °C for the second.

First: CCN1CCCC1Cc1cccc(NC(N)=O)c1 (configuration not stated)
Second: CCOC(=O)c1cncn1C1CC(C)(C)Oc2ccccc21 (configuration not stated)
The melting point of the first is higher: 114 to 116 °C for the first, 80.9 °C for the second.

Compared with `Cc1csc(CC(=O)O)c1`, `O=C(O)C1=Cc2cc(Cl)c(Cl)cc2OC1C(F)(F)F` (configuration not stated) is higher in melting point: 49 °C for the first, 196 to 198 °C for the second.

Compared with `O=C(Nc1nc(-c2ccco2)c(C(=O)C2CCOCC2)s1)c1ccco1`, `Nc1ncnc2c1c(-c1ccc(Oc3cccc(CN4CCOCC4)c3)cc1)cn2C1CCOC1` (configuration not stated) is lower in melting point: 196 to 198 °C for the first, 83 to 85 °C for the second.

First: O=C1CN(Cc2cccc(I)c2)S(=O)(=O)N1
Second: [N-]=[N+]=C1C(=O)CC(c2ccccc2)CC1=O (configuration not stated)
The melting point of the first is lower: 101 to 103 °C for the first, 122 to 124 °C for the second.

First: CCCc1nc2c(N)nc3ccccc3c2n1CCC(OCC)OCC
Second: CCOCc1nc2c(N)nc3cc(-c4cccnc4)ccc3c2n1Cc1ccc(CNS(C)(=O)=O)cc1
The melting point of the first is lower: 148 to 150 °C for the first, 228 to 229 °C for the second.

Compared with `CSc1nc(C)nc(N)n1`, `CCOc1cc2c(Cl)ccnc2nc1C` is higher in melting point: 161 to 163 °C for the first, 164 °C for the second.

Compared with `N#Cc1cc(-c2ccncc2)sc1-c1ccncc1`, `Nc1nnc(-c2ccc3ncn(-c4cccc(C(F)(F)F)c4)c3c2)o1` is higher in melting point: 205 to 207 °C for the first, 244 to 245 °C for the second.

`COc1nccc2cc(S(N)(=O)=O)oc12` and `COc1ccc2cc(C(C)C(O)(P(=O)(O)O)P(=O)(O)O)ccc2c1` (configuration not stated) cannot be ordered by melting point: 204 to 206 °C for the first, 205 °C for the second.

First: CC12CCC(=O)C=C1CCC1C2=CCC2(C)C(C#N)=CCC12 (configuration not stated)
Second: O=C(O)c1cc2cc(F)c(C(F)(F)F)cc2[nH]1
The melting point of the first is lower: 148 to 150 °C for the first, 178 to 180 °C for the second.

Compared with `CCCCn1nc(C=O)nc1Cc1ccc(-c2ccccc2-c2nnn[nH]2)nc1`, `COCCN(C)Cc1c(-c2ccc(N)cc2)sc2c1c(=O)n(-c1ccc3c(c1)OCO3)c(=O)n2Cc1c(F)cccc1F` is higher in melting point: 167 to 168 °C for the first, 200 to 202 °C for the second.

First: CC(=O)OC[C@H]1OC(OC(C)=O)[C@H](OC(C)=O)[C@@H](F)[C@@H]1OC(C)=O (some centres not stated)
Second: O=C(O)C1=CC(CF)(CF)Oc2ccc(C(F)(F)C(F)(F)C(F)(F)F)cc21
The melting point of the first is lower: 115 to 121 °C for the first, 162 to 163 °C for the second.
